How the values were obtained:
[1] = biological target: Mushroom TYR (EC 1.14.18.1) (Agaricus bisporus, UniProt C7FF04); assay: biochemical; conditions: IC50 value ± SD
mushroom TYR = mushroom TYR (Agaricus bisporus, UniProt C7FF04); assay: biochemical; format: binding
B16F10 cells [2] = assay: Cytotoxicity assay; format: cell-based; conditions: 72 h
A375 cells [3] = assay: Cytotoxicity assay; format: cell-based; conditions: 72 h
B16F10 cells [4] = assay: Intracellular melanogenesis inhibition assay, B16F10; format: cell-based; conditions: melanotan II 100 nM, 72 h; for order of inhibitory effectiveness (macroscopic colour): 100 μM; for inhibitory effect on melanin synthesis: various concentrations
A375 cells [5] = assay: Intracellular melanogenesis inhibition assay, A375; format: cell-based; conditions: melanotan II 100 nM, 72 h, all tested concentrations
3D melanin skin model = assay: 3D human skin model assay; format: cell-based; conditions: 100 µM, six doses, UVB 50 mJ/cm^2 for seven days, n = 6
Plasma stability study = format: in vitro ADME; conditions: human
[6] = human, microsomes
in vitro = conditions: human, microsomes
[7] = L-dopa, substrate L-dopa (diphenolase), n = 3, screening of de novo generated compounds (Table 1)
[8] = L-tyrosine, substrate L-tyrosine (monophenolase), n = 3, screening of de novo generated compounds (Table 1)

Mushroom TYR (EC 1.14.18.1), sequence (C7FF04 1-392 limits assumed): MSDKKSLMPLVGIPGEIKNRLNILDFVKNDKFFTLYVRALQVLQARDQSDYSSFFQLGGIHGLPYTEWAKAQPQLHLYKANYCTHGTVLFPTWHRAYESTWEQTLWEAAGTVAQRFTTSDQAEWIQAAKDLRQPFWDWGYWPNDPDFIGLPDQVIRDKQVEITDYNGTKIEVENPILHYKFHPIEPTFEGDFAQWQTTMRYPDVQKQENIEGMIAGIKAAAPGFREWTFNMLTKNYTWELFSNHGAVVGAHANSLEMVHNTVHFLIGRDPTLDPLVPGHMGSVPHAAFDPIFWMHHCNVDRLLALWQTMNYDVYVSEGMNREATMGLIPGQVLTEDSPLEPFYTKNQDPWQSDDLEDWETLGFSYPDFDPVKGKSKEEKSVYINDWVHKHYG
mushroom TYR, sequence (C7FF04 1-392 limits assumed): as above

Compound | IC50 ([1]; L-dopa) [µM] | IC50 ([1]; L-tyrosine) [µM] | IC50 [1, 7] [µM] | IC50 [1, 8] [µM] | further results
O=c1cc(CO)occ1O [kojic acid, reference compound] | – | – | – | – | cytotoxicity (B16F10 cells [2]; 200 μM): no cytotoxicity; cytotoxicity (A375 cells [3]; 200 μM): no cytotoxicity; order of inhibitory effectiveness (macroscopic colour) (B16F10 cells [4]): compound V-24 > β-arbutin > kojic acid ≈ compound V; L value (3D melanin skin model): 70.98 ± 0.68
O=C(CCc1cccc(O)c1)N1CCN(Cc2ccc(F)cc2)CC1 [Compound V, 1-(4-(4-fluorobenzyl)piperazin-1-yl)-3-(3-hydroxyphenyl)propan-1-one] | 41.8 ± 3 | 11.9 ± 0.5 | 18.5 ± 2.4 | 9.6 ± 1.1 | Kd (mushroom TYR): 24.2 ± 20.3 µM; cytotoxicity (B16F10 cells [2]; 200 μM): no cytotoxicity; cytotoxicity (A375 cells [3]; 100 μM): no cytotoxicity; cytotoxicity (A375 cells [3]; 200 μM): weak cytotoxicity; order of inhibitory effectiveness (macroscopic colour) (B16F10 cells [4]): compound V-24 > β-arbutin > kojic acid ≈ compound V; inhibitory effect on melanin synthesis (B16F10 cells [4]): comparable to that of kojic acid
Cc1ccccc1CNC(=O)CCc1cccc(O)c1 [X, 3-(3-hydroxyphenyl)-N-(2-methylbenzyl)propanamide] | – | – | 462 ± 50.4 | 60.9 ± 1.9 | –
O=C(/C=C/c1ccccc1)N1CCN(c2cccc(O)c2)CC1 [XII, (E)-1-(4-(3-hydroxyphenyl)piperazin-1-yl)-3-phenylprop-2-en-1-one] | – | – | 199 ± 22.7 | 35.9 ± 1.2 | –
O=C(NCc1ccc(F)cc1)c1cc(O)nc2ccccc12 [VI, N-(4-fluorobenzyl)-2-hydroxyquinoline-4-carboxamide] | – | – | > 800 | > 800 | –
NC(=O)[C@H](Cc1ccccc1)NC(=O)CCc1cccc(O)c1 [II, (S)-N-(1-amino-1-oxo-3-phenylpropan-2-yl)-3-(3-hydroxyphenyl)propanamide] | – | – | > 800 | 423 ± 38.3 | –
O=C(c1cccc(OCc2ccccc2)c1)N1CCN(c2ccc(O)cc2)CC1 [XV, (3-(benzyloxy)phenyl)(4-(4-hydroxyphenyl)piperazin-1-yl)methanone] | – | – | > 800 | > 800 | –
O=C(NCCc1cccc(O)c1)c1cccc2ncccc12 [VIII, N-(3-hydroxyphenethyl)quinoline-5-carboxamide] | – | – | > 800 | > 800 | –
Cc1nc2cc(C(=O)N3CCCN(Cc4ccccc4)CC3)ccc2[nH]1 [XIV, (4-benzyl-1,4-diazepan-1-yl)(2-methyl-1H-benzo[d]imidazol-5-yl)methanone] | – | – | > 800 | 449 ± 36.1 | –
COc1cccc(/C=C/C(=O)Nc2n[nH]c3ccccc23)c1 [VII, (E)-N-(1H-indazol-3-yl)-3-(3-methoxyphenyl)acrylamide] | – | – | > 800 | > 800 | –
O=C(Oc1ccc(N2CCNCC2)cc1)c1cc(O)nc2ccccc12 [XVII, 4-(piperazin-1-yl)phenyl 2-hydroxyquinoline-4-carboxylate] | – | – | 303 ± 47.6 | 164 ± 19.8 | –

Second part, led by results:

IC50 ([1]; L-dopa) [µM] | IC50 ([1]; L-tyrosine) [µM] | IC50 [1, 7] [µM] | IC50 [1, 8] [µM] | Compound | further results
0.018 ± 0.0007 | 0.02 ± 0.001 | – | – | Cc1ccc(CN2CCN(C(=O)/C=C/c3ccc(O)cc3O)CC2)cc1 [Compound V-24, (E)-3-(2,4-dihydroxyphenyl)-1-(4-(4-methylbenzyl)piperazin-1-yl)prop-2-en-1-one] | Kd (mushroom TYR): 13.8 ± 4.2 µM; cytotoxicity (B16F10 cells [2]; 100 μM): no cytotoxicity; cytotoxicity (A375 cells [3]; 100 μM): no cytotoxicity; cytotoxicity (A375 cells [3]; 200 μM): weak cytotoxicity; order of inhibitory effectiveness (macroscopic colour) (B16F10 cells [4]): compound V-24 > β-arbutin > kojic acid ≈ compound V; inhibitory effect on melanin synthesis (B16F10 cells [4]): akin to that of β-arbutin; inhibitory effect on melanin synthesis (A375 cells [5]): most pronounced inhibitory effect; L value (3D melanin skin model): 83.38 ± 0.40; half-life at 1 µM (Plasma stability study): 8.74 h; remaining at 2 h, 1 µM (Plasma stability study): 89.1%; Eh [6]: 69.00%; half-life at 1 µM (in vitro): 0.58 h; remaining at 0.75 h, 1 µM (in vitro): 42%
0.189 ± 0.005 | 0.216 ± 0.019 | – | – | O=C(CCc1ccc(O)cc1O)N1CCN(Cc2cccc(Cl)c2)CC1 [Compound V-29, 1-(4-(3-chlorobenzyl)piperazin-1-yl)-3-(2,4-dihydroxyphenyl)propan-1-one] | –
0.237 ± 0.011 | 0.299 ± 0.007 | – | – | N#Cc1ccc(CN2CCN(C(=O)CCc3ccc(O)cc3O)CC2)cc1 [Compound V-33, 4-((4-(3-(2,4-dihydroxyphenyl)propanoyl)piperazin-1-yl)methyl)benzonitrile] | –
> 800 | 328 ± 4.9 | – | – | O=C(CCc1cccc(O)c1)NCCCNCc1ccc(F)cc1 [Compound V-9, N-(3-((4-fluorobenzyl)amino)propyl)-3-(3-hydroxyphenyl)propanamide] | –
> 800 | 204 ± 3.9 | – | – | O=C(CCc1cccc(O)c1)N1CCN(Cc2ccccc2F)CC1 [Compound V-1, 1-(4-(2-fluorobenzyl)piperazin-1-yl)-3-(3-hydroxyphenyl)propan-1-one] | –
21 ± 0.82 | 8.2 ± 0.4 | – | – | O=C(CCc1cc(O)ccc1O)N1CCN(Cc2ccc(F)cc2)CC1 [Compound V-21, 3-(2,5-dihydroxyphenyl)-1-(4-(4-fluorobenzyl)piperazin-1-yl)propan-1-one] | –
0.021 ± 0.002 | 0.024 ± 0.002 | – | – | O=C(/C=C/c1ccc(O)cc1O)N1CCN(Cc2ccc(Cl)cc2)CC1 [Compound V-32, (E)-1-(4-(4-chlorobenzyl)piperazin-1-yl)-3-(2,4-dihydroxyphenyl)prop-2-en-1-one] | –
> 800 | > 800 | – | – | CCc1ccc(CN2CCN(C(=O)CCc3cccc(O)c3)CC2)cc1 [Compound V-12, 1-(4-(4-ethylbenzyl)piperazin-1-yl)-3-(3-hydroxyphenyl)propan-1-one] | –
0.134 ± 0.008 | 0.183 ± 0.013 | – | – | Cc1ccc(CN2CCN(C(=O)CCc3ccc(O)cc3O)CC2)cc1 [Compound V-23, 3-(2,4-dihydroxyphenyl)-1-(4-(4-methylbenzyl)piperazin-1-yl)propan-1-one] | –
19 ± 2.2 | 7.4 ± 0.4 | – | – | O=C(CCc1cccc(O)c1)N1CCN(Cc2cccc(Cl)c2)CC1 [Compound V-10, 1-(4-(3-chlorobenzyl)piperazin-1-yl)-3-(3-hydroxyphenyl)propan-1-one] | –

Reference: paper PMC13539321 (Journal of Advanced Research, 2025)
